# According to patent US12195482B1 (Arcus Biosciences, Inc., priority 2022, dated 2025):
# Tests used:
# p-AXL = target: T1, p-AXL (Homo sapiens, UniProt P30530); experiment: Axl phosphorylation inhibition ELISA in HEK293T cells transfected with NanoLuc-tagged AXL; assay type: cell-based; conditions: 1 h compound incubation, media (OptiMEM)
# T1 construct: expressed in transfected cells; host or cells: HEK293T
# T1 sequence (P30530 26-894): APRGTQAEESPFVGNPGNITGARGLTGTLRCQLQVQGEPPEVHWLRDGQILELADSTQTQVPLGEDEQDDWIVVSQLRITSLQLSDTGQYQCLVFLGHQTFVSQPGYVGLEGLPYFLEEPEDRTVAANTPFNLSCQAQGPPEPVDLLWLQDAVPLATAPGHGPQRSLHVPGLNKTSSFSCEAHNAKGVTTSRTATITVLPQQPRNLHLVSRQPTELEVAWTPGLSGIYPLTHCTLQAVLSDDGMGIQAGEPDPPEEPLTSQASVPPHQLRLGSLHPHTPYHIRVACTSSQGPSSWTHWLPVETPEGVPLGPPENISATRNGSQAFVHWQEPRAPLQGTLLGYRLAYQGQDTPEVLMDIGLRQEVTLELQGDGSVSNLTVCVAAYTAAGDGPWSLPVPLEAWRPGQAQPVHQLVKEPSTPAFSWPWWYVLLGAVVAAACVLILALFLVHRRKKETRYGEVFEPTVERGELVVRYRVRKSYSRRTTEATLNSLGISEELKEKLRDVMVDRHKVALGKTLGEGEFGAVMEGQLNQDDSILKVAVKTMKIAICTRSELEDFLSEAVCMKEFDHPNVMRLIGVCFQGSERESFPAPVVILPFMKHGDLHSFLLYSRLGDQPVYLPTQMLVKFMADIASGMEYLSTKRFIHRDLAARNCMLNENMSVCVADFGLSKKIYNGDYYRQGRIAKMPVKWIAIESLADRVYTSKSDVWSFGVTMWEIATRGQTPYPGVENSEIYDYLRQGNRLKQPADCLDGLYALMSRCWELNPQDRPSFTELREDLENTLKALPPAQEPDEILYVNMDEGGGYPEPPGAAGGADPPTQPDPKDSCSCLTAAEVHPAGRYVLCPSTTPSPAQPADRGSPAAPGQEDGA
# In short: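 HEK293T cells transiently transfected one day earlier with NanoLuc-tagged AXL were exposed to 22-point 2-fold compound dilutions for 1 h at 37° C (70,000 cells/well), then lysed. Lysates captured on anti-phospho-tyrosine coated plates for 2 h; bound p-AXL read by NanoLuc luminescence; IC50 from 4-parameter logistic fit.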
# Axl = target: T2, Axl (Homo sapiens, UniProt P30530); experiment: Biochemical potency, HTRF KinEASE-TK kinase assay; parameters: purchased Invitrogen; conditions: 5 nM AXL, 700 μM ATP
# T2 sequence (P30530 26-894): T1 sequence (P30530 26-894)
# In short: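 Enzyme (AXL 5 nM; TYRO3 or MER 1 nM final) was preincubated with compound for 1 h at RT, then reacted for 2 h at RT with 800 nM biotinylated TK substrate and 700 µM ATP in HEPES pH 7.4, MgCl2, DTT, BSA, 1% DMSO. Percent activity came from the HTRF 665/620 ratio.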
SMILES,IC50 (p-AXL) [nM],IC50 (Axl) [nM]
"Cc1cccnc1-c1ccc(-c2c[nH]c3ncc(-c4ccc5c(c4)CC[C@@H](N4C6COCC4C6)CC5)cc23)cc1 [Example 1, 6-[(7S)-2-{3-[4-(3-Methylpyridin-2-yl)phenyl]-1H-pyrrolo[2,3-b]pyridin-5-yl}-6,7,8,9-tetrahydro-5H-benzo[7]annulen-7-yl]-3-oxa-6-azabicyclo[3.1.1]heptane]",< 100,< 100
"Cc1nncn1-c1ccc(-c2n[nH]c3ncc(-c4ccc5c(c4)CC[C@@H](N4C6COCC4C6)CC5)cc23)cc1 [Example 11, 6-[(7S)-2-{3-[4-(3-Methyl-4H-1,2,4-triazol-4-yl)phenyl]-1H-pyrazolo[3,4-b]pyridin-5-yl}-6,7,8,9-tetrahydro-5H-benzo[7]annulen-7-yl]-3-oxa-6-azabicyclo[3.1.1]heptane]",–,< 100
"c1ccc(-c2ccc(-c3c[nH]c4ncc(-c5ccc6c(c5)CC[C@@H](N5C[C@@H]7C[C@H]5CO7)CC6)cc34)cc2)nc1 [Example 33, (1S,4S)-5-[(7S)-3-[3-(4-Pyridin-2-ylphenyl)-1H-pyrrolo[2,3-b]pyridin-5-yl]-6,7,8,9-tetrahydro-5H-benzo[7]annulen-7-yl]-2-oxa-5-azabicyclo[2.2.1]heptane]",100 to 1000,< 100
"Fc1cc(-c2c[nH]c3ncc(-c4ccc5c(c4)CC[C@@H](N4C6COCC4C6)CC5)cc23)ccc1-c1ccccn1 [Example 40, 6-[(7S)-2-{3-[3-Fluoro-4-(pyridin-2-yl)phenyl]-1H-pyrrolo[2,3-b]pyridin-5-yl}-6,7,8,9-tetrahydro-5H-benzo[7]annulen-7-yl]-3-oxa-6-azabicyclo[3.1.1]heptane]",–,< 100
"Clc1cc(-c2c[nH]c3ncc(-c4ccc5c(c4)CC[C@@H](N4C6COCC4C6)CC5)cc23)ccc1-c1ccccn1 [Example 44, 6-[(7S)-2-{3-[3-Chloro-4-(pyridin-2-yl)phenyl]-1H-pyrrolo[2,3-b]pyridin-5-yl}-6,7,8,9-tetrahydro-5H-benzo[7]annulen-7-yl]-3-oxa-6-azabicyclo[3.1.1]heptane]",100 to 1000,< 100
"N#Cc1cccnc1-c1ccc(-c2c[nH]c3ncc(-c4ccc5c(c4)CC[C@@H](N4C6COCC4C6)CC5)cc23)cc1 [Example 46, 2-(4-{5-[(7S)-7-{3-Oxa-6-azabicyclo[3.1.1]heptan-6-yl}-6,7,8,9-tetrahydro-5H-benzo[7]annulen-2-yl]-1H-pyrrolo[2,3-b]pyridin-3-yl}phenyl)pyridine-3-carbonitrile]",< 100,< 100
"Cc1cncnc1-c1ccc(-c2c[nH]c3ncc(-c4ccc5c(c4)CC[C@@H](N4C6COCC4C6)CC5)cc23)cc1 [Example 47, 6-[(7S)-2-{3-[4-(5-Methylpyrimidin-4-yl)phenyl]-1H-pyrrolo[2,3-b]pyridin-5-yl}-6,7,8,9-tetrahydro-5H-benzo[7]annulen-7-yl]-3-oxa-6-azabicyclo[3.1.1]heptane]",< 100,< 100
"c1cncc(-c2ccc(-c3n[nH]c4ncc(-c5ccc6c(c5)CC[C@@H](N5C7COCC5C7)CC6)cc34)cc2)c1 [Example 157, 6-[(7S)-2-{3-[4-(Pyridin-3-yl)phenyl]-2H-pyrazolo[3,4-b]pyridin-5-yl}-6,7,8,9-tetrahydro-5H-benzo[7]annulen-7-yl]-3-oxa-6-azabicyclo[3.1.1]heptane]",–,< 100
"COc1cc(-c2n[nH]c3ncc(-c4ccc5c(c4)CC[C@@H](N4C6COCC4C6)CC5)cc23)ccc1-c1ccccn1 [Example 160, 6-[(7S)-2-{3-[3-Methoxy-4-(pyridin-2-yl)phenyl]-2H-pyrazolo[3,4-b]pyridin-5-yl}-6,7,8,9-tetrahydro-5H-benzo[7]annulen-7-yl]-3-oxa-6-azabicyclo[3.1.1]heptane]",–,< 100

# Other lines, results leading:
IC50 (p-AXL) [nM],IC50 (Axl) [nM],SMILES
< 100,< 100,"Cc1cccnc1-c1ccc(-c2n[nH]c3ncc(-c4ccc5c(c4)CC[C@@H](N4C6COCC4C6)CC5)cc23)cc1 [Example 2, 6-[(7S)-2-{3-[4-(3-Methylpyridin-2-yl)phenyl]-2H-pyrazolo[3,4-b]pyridin-5-yl}-6,7,8,9-tetrahydro-5H-benzo[7]annulen-7-yl]-3-oxa-6-azabicyclo[3.1.1]heptane]"
< 100,< 100,"COCCOc1cccnc1-c1ccc(-c2c[nH]c3ncc(-c4ccc5c(c4)CC[C@@H](N4C6COCC4C6)CC5)cc23)cc1 [Example 3, 6-[(7S)-2-(3-{4-[3-(2-Methoxyethoxy)pyridin-2-yl]phenyl}-1H-pyrrolo[2,3-b]pyridin-5-yl)-6,7,8,9-tetrahydro-5H-benzo[7]annulen-7-yl]-3-oxa-6-azabicyclo[3.1.1]heptane]"
100 to 1000,< 100,"c1cc(-c2ccc(-c3c[nH]c4ncc(-c5ccc6c(c5)CC[C@@H](N5C7COCC5C7)CC6)cc34)cc2)ccn1 [Example 41, 6-[(7S)-2-{3-[4-(Pyridin-4-yl)phenyl]-1H-pyrrolo[2,3-b]pyridin-5-yl}-6,7,8,9-tetrahydro-5H-benzo[7]annulen-7-yl]-3-oxa-6-azabicyclo[3.1.1]heptane]"
–,< 100,"Fc1cccnc1-c1ccc(-c2c[nH]c3ncc(-c4ccc5c(c4)CC[C@@H](N4C6COCC4C6)CC5)cc23)cc1 [Example 42, 6-[(7S)-2-{3-[4-(3-Fluoropyridin-2-yl)phenyl]-1H-pyrrolo[2,3-b]pyridin-5-yl}-6,7,8,9-tetrahydro-5H-benzo[7]annulen-7-yl]-3-oxa-6-azabicyclo[3.1.1]heptane]"
–,< 100,"Clc1cccnc1-c1ccc(-c2c[nH]c3ncc(-c4ccc5c(c4)CC[C@@H](N4C6COCC4C6)CC5)cc23)cc1 [Example 43, 6-[(7S)-2-{3-[4-(3-Chloropyridin-2-yl)phenyl]-1H-pyrrolo[2,3-b]pyridin-5-yl}-6,7,8,9-tetrahydro-5H-benzo[7]annulen-7-yl]-3-oxa-6-azabicyclo[3.1.1]heptane]"
100 to 1000,< 100,"c1cc(-n2cc(-c3c[nH]c4ncc(-c5ccc6c(c5)CC[C@@H](N5C7COCC5C7)CC6)cc34)cn2)ccn1 [Example 45, 6-[(7S)-2-{3-[1-(Pyridin-4-yl)-1H-pyrazol-4-yl]-1H-pyrrolo[2,3-b]pyridin-5-yl}-6,7,8,9-tetrahydro-5H-benzo[7]annulen-7-yl]-3-oxa-6-azabicyclo[3.1.1]heptane]"
< 100,< 100,"Cc1nccnc1-c1ccc(-c2c[nH]c3ncc(-c4ccc5c(c4)CC[C@@H](N4C6COCC4C6)CC5)cc23)cc1 [Example 48, 6-[(7S)-2-{3-[4-(3-Methylpyrazin-2-yl)phenyl]-1H-pyrrolo[2,3-b]pyridin-5-yl}-6,7,8,9-tetrahydro-5H-benzo[7]annulen-7-yl]-3-oxa-6-azabicyclo[3.1.1]heptane]"
–,< 100,"COc1cc(-c2c[nH]c3ncc(-c4ccc5c(c4)CC[C@@H](N4C6COCC4C6)CC5)cc23)ccc1-c1ccccn1 [Example 161, 6-[(7S)-2-{3-[3-Methoxy-4-(pyridin-2-yl)phenyl]-1H-pyrrolo[2,3-b]pyridin-5-yl}-6,7,8,9-tetrahydro-5H-benzo[7]annulen-7-yl]-3-oxa-6-azabicyclo[3.1.1]heptane]"
–,< 100,"COc1cccc(-c2ccc(-c3n[nH]c4ncc(-c5ccc6c(c5)CC[C@@H](N5C7COCC5C7)CC6)cc34)cc2)n1 [Example 162, 6-[(7S)-2-{3-[4-(6-Methoxypyridin-2-yl)phenyl]-2H-pyrazolo[3,4-b]pyridin-5-yl}-6,7,8,9-tetrahydro-5H-benzo[7]annulen-7-yl]-3-oxa-6-azabicyclo[3.1.1]heptane]"
